Assays:
CYP3A4/5 = CYP3A4/5 inhibition in human liver microsomes; type: biochemical; settings: for IC50 at 10 min / inhibition at 10 min, 666 μmol/L: human, human liver microsomes; for inhibition at 10 min, 666 μmol/L: probe testosterone, Inhibition of formation of 6β‐hydroxytestosterone, Mean, testosterone
[1] = Preliminary metabolic stability in HLM; type: in vitro ADME, human; settings: with and without cofactor, 37°C, 0-40 minutes, MMF at 750 μmol/L
[2] = pH conditions and gut esterases; cited from earlier work
[3] = system: moderate‐to‐severe psoriasis; settings: phase III trial (BRIDGE); both P < .001; cited from earlier work
P‐gp [4] = biological target: T1, P‐gp (Homo sapiens, UniProt P08183); assay: P-gp inhibition, [3H]digoxin efflux in Caco-2 cells; settings: for % Control relative to 0 mmol/L MMF: Caco‐2 cells, [^3H]digoxin efflux ratio
P‐gp [5] = biological target: T1, P‐gp; assay: P-gp inhibition, [3H]digoxin efflux in MDCKII-MDR1 and MDCKII-WT cells; settings: for % Control relative to 0 mmol/L MMF: MDCKII cells, [^3H]digoxin net efflux ratio
CYP1A2 = biological target: T2, CYP1A2 (Homo sapiens, UniProt P05177); assay: CYP1A2 inhibition in human liver microsomes; type: biochemical
T2 sequence (P05177 1-516): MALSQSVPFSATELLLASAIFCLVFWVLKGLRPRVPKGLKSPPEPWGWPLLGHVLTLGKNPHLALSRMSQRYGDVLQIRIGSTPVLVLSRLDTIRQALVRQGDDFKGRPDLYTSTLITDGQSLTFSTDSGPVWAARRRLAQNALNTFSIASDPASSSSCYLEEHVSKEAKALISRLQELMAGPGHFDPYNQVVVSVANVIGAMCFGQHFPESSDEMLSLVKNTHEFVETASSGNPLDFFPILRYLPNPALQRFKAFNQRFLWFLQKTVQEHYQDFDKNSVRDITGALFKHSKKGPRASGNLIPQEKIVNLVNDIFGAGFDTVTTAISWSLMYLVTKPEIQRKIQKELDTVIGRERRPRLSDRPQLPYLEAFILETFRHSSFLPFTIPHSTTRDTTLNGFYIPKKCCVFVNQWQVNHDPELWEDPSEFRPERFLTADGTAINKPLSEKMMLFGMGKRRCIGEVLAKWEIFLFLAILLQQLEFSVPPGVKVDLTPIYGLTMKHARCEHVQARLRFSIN

CYP2B6 = biological target: T3, CYP2B6 (Homo sapiens, UniProt P20813); assay: CYP2B6 inhibition in human liver microsomes; type: biochemical
T3 sequence (P20813 1-491): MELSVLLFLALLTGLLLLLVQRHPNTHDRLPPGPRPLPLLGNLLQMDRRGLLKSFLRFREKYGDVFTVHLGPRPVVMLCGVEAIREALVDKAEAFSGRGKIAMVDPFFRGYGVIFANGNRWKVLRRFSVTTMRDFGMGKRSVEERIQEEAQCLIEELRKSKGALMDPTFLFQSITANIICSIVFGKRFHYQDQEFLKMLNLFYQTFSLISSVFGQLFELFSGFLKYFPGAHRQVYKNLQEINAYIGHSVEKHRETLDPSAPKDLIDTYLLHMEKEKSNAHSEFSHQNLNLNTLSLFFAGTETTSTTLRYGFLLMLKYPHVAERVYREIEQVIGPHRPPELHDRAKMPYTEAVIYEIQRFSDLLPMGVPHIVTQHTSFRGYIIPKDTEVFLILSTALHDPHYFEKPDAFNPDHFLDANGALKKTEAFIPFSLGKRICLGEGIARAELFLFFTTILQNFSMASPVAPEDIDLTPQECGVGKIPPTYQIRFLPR

CYP2C8 = biological target: T4, CYP2C8 (Homo sapiens, UniProt P10632); assay: CYP2C8 inhibition in human liver microsomes; type: biochemical
T4 sequence (P10632 1-490): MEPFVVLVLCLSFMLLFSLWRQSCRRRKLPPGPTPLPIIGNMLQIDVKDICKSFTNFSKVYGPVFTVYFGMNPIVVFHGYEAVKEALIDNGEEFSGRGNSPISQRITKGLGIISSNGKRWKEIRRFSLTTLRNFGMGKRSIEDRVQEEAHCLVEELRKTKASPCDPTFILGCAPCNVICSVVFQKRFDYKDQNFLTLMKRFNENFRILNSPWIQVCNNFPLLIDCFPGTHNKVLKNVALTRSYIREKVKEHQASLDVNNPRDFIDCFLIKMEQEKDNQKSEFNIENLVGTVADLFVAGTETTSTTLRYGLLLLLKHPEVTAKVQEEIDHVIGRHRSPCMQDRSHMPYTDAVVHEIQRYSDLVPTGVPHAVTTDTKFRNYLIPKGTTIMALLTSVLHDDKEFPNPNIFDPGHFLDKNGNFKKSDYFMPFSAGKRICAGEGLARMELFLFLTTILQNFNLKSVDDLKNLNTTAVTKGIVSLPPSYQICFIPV

CYP2C9 = CYP2C9 (Homo sapiens, UniProt P11712); assay: CYP2C9 inhibition in human liver microsomes; type: biochemical
CYP2C19 = CYP2C19 (Homo sapiens, UniProt P33261); assay: CYP2C19 inhibition in human liver microsomes; type: biochemical
CYP2D6 = CYP2D6 (Homo sapiens, UniProt P10635); assay: CYP2D6 inhibition in human liver microsomes; type: biochemical
[6] = Preliminary solubility in potassium phosphate buffer with HLM; type: physicochemical; settings: MMF in solutions of HLM at 0.025 and 0.3 mg/mL
[7] = MMF solubility in supplemented Williams' Medium E; type: physicochemical; settings: MMF up to 750 μmol/L
[8] = Cytotoxicity in cultured human hepatocytes; type: cell-based; settings: human, cryopreserved plated human hepatocytes
human hepatocytes = assay: Cytotoxicity in cultured human hepatocytes; type: cell-based; settings: MMF ≤250 μmol/L; 72‐hour incubation
CYP1A2 mRNA = CYP1A2 mRNA induction in cultured human hepatocytes; type: cell-based
CYP2B6 mRNA = CYP2B6 mRNA induction in cultured human hepatocytes; type: cell-based
CYP3A4 mRNA = CYP3A4 mRNA induction in cultured human hepatocytes; type: cell-based
[9] = MMF concentration in incubation medium; type: in vitro ADME; settings: no‐cell control plate; after 24 hours’ incubation
[10] = Permeability across Caco-2 cell monolayers; type: in vitro ADME; settings: human, Caco-2, pH 7.4
P‐gp [11] = biological target: T1, P‐gp; assay: P-gp substrate assessment in MDCKII-MDR1 and WT MDCKII cells; type: in vitro ADME; settings: MMF; at 120 minutes; all concentrations investigated
[12] = read-out: maximum plasma concentration (Cmax) of MMF; for a 240 mg dose; clinically relevant; cited from earlier work

T1 sequence (P08183 whole entry): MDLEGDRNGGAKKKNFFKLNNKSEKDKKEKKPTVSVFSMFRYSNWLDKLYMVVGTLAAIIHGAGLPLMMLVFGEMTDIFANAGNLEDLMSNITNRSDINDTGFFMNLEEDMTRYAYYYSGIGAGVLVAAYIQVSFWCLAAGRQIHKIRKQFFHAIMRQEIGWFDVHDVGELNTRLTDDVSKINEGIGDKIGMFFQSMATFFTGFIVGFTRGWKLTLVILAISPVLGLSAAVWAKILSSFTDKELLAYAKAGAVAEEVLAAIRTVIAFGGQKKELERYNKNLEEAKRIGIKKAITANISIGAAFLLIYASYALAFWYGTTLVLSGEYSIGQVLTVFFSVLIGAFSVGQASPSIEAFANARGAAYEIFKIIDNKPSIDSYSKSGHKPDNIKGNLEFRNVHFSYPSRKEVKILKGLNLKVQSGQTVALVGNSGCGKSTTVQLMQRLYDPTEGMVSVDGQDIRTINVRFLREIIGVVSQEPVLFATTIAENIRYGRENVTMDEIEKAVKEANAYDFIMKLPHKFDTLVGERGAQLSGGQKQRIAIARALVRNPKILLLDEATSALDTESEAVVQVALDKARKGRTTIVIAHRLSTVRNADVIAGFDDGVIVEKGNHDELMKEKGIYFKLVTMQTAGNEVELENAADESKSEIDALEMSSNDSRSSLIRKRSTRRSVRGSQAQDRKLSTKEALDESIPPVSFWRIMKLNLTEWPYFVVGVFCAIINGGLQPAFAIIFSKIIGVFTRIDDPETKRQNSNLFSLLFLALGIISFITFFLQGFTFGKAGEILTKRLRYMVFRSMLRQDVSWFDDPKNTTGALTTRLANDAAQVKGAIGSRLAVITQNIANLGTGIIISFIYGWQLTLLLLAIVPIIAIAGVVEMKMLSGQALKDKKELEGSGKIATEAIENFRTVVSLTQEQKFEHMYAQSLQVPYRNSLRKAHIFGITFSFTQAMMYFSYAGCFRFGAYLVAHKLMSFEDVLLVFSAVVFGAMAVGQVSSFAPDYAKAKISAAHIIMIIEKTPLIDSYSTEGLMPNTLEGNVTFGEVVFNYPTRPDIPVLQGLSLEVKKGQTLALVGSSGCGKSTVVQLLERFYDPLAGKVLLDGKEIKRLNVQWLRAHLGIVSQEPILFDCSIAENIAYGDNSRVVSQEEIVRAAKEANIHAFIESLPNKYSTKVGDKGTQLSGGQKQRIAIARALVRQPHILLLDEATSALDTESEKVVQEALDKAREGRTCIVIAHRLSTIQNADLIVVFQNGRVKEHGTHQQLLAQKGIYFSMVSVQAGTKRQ
CYP2D6, sequence (P10635 whole entry): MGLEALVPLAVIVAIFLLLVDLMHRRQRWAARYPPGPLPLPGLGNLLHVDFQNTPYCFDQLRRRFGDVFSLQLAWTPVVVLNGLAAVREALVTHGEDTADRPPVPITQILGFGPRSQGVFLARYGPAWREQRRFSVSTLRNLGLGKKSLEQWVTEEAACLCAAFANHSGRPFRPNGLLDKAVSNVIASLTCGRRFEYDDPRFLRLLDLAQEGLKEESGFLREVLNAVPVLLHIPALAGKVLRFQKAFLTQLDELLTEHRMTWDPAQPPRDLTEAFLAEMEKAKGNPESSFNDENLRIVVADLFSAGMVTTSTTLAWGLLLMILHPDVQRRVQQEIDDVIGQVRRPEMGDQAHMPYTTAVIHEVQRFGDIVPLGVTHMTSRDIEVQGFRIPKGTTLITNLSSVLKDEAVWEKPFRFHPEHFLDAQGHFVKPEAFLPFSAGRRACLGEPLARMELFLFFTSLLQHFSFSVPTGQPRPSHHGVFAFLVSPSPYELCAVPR
CYP2C19, sequence (P33261 whole entry): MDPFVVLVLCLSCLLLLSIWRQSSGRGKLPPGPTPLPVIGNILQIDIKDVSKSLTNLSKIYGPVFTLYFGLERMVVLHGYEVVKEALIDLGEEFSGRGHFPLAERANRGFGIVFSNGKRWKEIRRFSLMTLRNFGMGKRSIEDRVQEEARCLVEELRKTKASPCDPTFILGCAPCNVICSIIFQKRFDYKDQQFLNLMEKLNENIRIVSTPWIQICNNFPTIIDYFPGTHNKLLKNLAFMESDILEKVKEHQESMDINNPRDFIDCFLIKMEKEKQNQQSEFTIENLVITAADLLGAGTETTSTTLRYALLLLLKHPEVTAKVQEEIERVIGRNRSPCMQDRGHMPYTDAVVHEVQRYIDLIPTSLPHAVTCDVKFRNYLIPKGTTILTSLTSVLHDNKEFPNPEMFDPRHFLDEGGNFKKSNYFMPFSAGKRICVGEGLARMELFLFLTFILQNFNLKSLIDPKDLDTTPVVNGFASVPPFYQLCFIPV
CYP2C9, sequence (P11712 whole entry): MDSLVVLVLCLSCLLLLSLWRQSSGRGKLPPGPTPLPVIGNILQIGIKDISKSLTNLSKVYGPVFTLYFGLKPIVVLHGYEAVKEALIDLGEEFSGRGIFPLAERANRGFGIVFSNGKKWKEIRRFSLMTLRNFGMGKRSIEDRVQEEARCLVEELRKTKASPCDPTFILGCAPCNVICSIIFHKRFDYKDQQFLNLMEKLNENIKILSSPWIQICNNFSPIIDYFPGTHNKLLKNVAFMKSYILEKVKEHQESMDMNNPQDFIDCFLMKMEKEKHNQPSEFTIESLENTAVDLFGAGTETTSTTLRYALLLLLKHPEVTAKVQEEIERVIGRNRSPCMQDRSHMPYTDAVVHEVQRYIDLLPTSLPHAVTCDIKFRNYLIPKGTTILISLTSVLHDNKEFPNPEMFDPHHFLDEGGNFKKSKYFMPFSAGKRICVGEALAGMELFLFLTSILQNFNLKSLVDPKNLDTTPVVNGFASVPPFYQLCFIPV

COC(=O)/C=C/C(=O)OC [DMF, dimethylfumarate]
Inhibition of formation of 1′‐hydroxymidazolam, Mean (CYP3A4/5; DMF 666 μmol/L, 30 min PI + cofactor, midazolam, HLM): 8.93% | IC50 at 10 min (CYP3A4/5): > 666 µM | inhibition at 10 min, 666 μmol/L (CYP3A4/5; DMF 666 μmol/L, 0 min PI, HLM): 0% | inhibition at 10 min, 666 μmol/L (CYP3A4/5; DMF 666 μmol/L, 30 min PI + cofactor, HLM): 35.5% | inhibition at 10 min, 666 μmol/L (CYP3A4/5; DMF 666 μmol/L, 30 min PI – cofactor, HLM): 0% | metabolic stability under the incubation conditions [1]: unlikely to be stable | hydrolysis half‐life of DMF in the intestine [2]: less than 2 minutes | number of patients with PASI 75 at Week 16 [3]: superiority over placebo and noninferiority versus the FAE combination | IC50 (P‐gp [4]): 1500 µM | IC50 (P‐gp [5]): 900 µM

COC(=O)/C=C/C(=O)O [MMF, monomethylfumarate]
IC50 at 10 min (CYP3A4/5): > 750 µM | IC50 (CYP1A2): > 750 µM | IC50 (CYP2B6): > 750 µM | IC50 (CYP2C8): > 750 µM | IC50 (CYP2C9): > 750 µM | IC50 (CYP2C19): > 750 µM | IC50 (CYP2D6): > 750 µM | mean recovery upon centrifugation [6]: > 92.2% | metabolic stability under the incubation conditions [1]: stable | Post‐centrifugation recoveries [7]: ≥ 86.5% | viability at 72 h, 750 μmol/L [8]: 71.6% | cytotoxic effects on human hepatocytes (human hepatocytes): No significant cytotoxic effects | fold increase in CYP1A2 mRNA (CYP1A2 mRNA; 250 μmol/L MMF, donor 4): 4.78 fold | CYP1A2 mRNA induction, overall (CYP1A2 mRNA; MMF 1‐250 µmol/L, three donors): No concentration‐dependent induction effects | fold increase in CYP2B6 mRNA (CYP2B6 mRNA; 250 μmol/L MMF, donor 4): 17.6 fold | CYP2B6 mRNA induction, overall (CYP2B6 mRNA; MMF 1‐250 µmol/L, three donors): No concentration‐dependent induction effects | fold increase in CYP3A4 mRNA (CYP3A4 mRNA; 1 µmol/L MMF, donor 2 (XKU), not concentration dependent): > 2 fold | CYP3A4 mRNA induction, overall (CYP3A4 mRNA; MMF at concentrations up to 250 μmol/L): no concentration‐dependent increases above 2‐fold | MMF still present in medium [9]: over 65% | Papp A→B at 120 min [10]: < 2 ×10⁻⁶ cm/s | net efflux ratio (P‐gp [11]): < 2 | Cmax [12]: 11.2 µM | decrease of [^3H]digoxin efflux ratio (P‐gp [4]; 7.38 mmol/L MMF, Caco‐2): approximately 85% | fold increase of Papp for [^3H]digoxin in the A–B direction (P‐gp [4]; 7.38 mmol/L MMF, Caco‐2, possibly cytotoxicity): approximately 9 fold | % Control relative to 0 mmol/L MMF (P‐gp [4]; MMF 0.0738 mmol/L): 76.9% | % Control relative to 0 mmol/L MMF (P‐gp [4]; MMF 0.246 mmol/L): 76.7% | % Control relative to 0 mmol/L MMF (P‐gp [4]; MMF 0.738 mmol/L): 99.8% | % Control relative to 0 mmol/L MMF (P‐gp [4]; MMF 7.38 mmol/L): 14.5% | % Control relative to 0 mmol/L MMF (P‐gp [5]; MMF 0.246 mmol/L): >69.4% | % Control relative to 0 mmol/L MMF (P‐gp [5]; MMF 0.738 mmol/L): >88.2% | % Control relative to 0 mmol/L MMF (P‐gp [5]; MMF 7.38 mmol/L): >138%
